What all share (assay type): functional, cell-based
What all share (conditions): mcf7r

The target of data set [1] is T1, ATP-dependent translocase ABCB1 (Homo sapiens, UniProt P08183). The experiment in a line: TP_TRANSPORTER: efflux of 3uM mitoxantrone in the presence of PSC-833 (Valspodar) at a concentration of 2.5uM in MCF7/R cells.
Data set [2] concerns the target T1, ATP-dependent translocase ABCB1. In words: TP_TRANSPORTER: efflux of 3uM mitoxantrone in the presence of tRA96023 at a concentration of 10uM in MCF7/R cells.
Data set [3] shares this target. The experiment in a line: TP_TRANSPORTER: efflux of 3uM mitoxantrone in the presence of Probenecid at 1mM in MCF7/R cells.
Data set [4] has the same target. In words: TP_TRANSPORTER: efflux of 3uM mitoxantrone by Fumitremorgin C at 10uM in MCF7/R cells.
The target is the same in data set [5]. In words: TP_TRANSPORTER: efflux of mitoxantrone (Mitoxantrone: 3uM) in the presence of Ortataxel at a concentration of 10uM in MCF7/R cells.

The structures appear in SMILES notation.

T1 sequence (P08183 whole entry): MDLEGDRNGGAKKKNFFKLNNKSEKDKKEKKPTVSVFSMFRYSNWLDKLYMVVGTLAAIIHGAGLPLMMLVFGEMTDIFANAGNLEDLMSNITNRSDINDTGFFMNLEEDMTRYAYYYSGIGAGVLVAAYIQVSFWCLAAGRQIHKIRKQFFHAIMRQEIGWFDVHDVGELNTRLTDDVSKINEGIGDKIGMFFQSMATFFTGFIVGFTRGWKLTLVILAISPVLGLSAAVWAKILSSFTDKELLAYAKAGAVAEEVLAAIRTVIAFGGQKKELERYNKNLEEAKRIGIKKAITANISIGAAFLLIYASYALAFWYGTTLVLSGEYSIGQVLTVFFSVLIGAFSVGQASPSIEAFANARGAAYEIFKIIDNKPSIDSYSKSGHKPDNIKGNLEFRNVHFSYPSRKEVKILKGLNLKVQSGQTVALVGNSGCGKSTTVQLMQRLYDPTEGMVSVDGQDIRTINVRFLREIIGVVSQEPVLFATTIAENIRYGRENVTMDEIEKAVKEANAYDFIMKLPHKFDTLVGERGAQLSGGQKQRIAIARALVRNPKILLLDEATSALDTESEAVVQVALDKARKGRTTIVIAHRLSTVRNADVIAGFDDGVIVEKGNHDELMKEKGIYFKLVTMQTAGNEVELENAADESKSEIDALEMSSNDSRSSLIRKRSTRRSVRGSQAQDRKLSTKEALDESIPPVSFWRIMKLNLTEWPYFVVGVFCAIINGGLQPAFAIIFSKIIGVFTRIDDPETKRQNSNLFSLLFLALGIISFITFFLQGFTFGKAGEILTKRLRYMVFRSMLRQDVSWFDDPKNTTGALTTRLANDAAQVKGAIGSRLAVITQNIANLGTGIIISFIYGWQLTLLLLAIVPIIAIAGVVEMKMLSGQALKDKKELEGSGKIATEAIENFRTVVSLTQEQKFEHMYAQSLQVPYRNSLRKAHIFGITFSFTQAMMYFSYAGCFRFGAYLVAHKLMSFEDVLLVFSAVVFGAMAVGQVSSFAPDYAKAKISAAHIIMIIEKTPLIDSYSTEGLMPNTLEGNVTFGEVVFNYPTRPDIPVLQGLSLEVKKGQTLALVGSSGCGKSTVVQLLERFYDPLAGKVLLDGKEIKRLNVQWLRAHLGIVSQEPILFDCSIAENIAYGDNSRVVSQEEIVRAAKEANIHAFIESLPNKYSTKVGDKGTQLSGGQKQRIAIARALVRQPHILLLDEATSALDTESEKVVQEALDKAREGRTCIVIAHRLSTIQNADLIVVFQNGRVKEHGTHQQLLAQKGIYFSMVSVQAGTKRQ

Regarding `C/C=C/C[C@@H](C)C(=O)[C@H]1C(=O)N[C@@H](C(C)C)C(=O)N(C)CC(=O)N(C)[C@@H](CC(C)C)C(=O)N[C@@H](C(C)C)C(=O)N(C)[C@@H](CC(C)C)C(=O)N[C@@H](C)C(=O)N[C@H](C)C(=O)N(C)[C@@H](CC(C)C)C(=O)N(C)[C@@H](CC(C)C)C(=O)N(C)[C@@H](C(C)C)C(=O)N1C` [VALSPODAR], in data set [1], the Activity result is “inhibitor [+]”.

As for `CC(=O)O[C@H]1C(=O)[C@@]2(C)C([C@H](OCc3ccccc3)C3(O)C[C@H](OC(C)=O)C(C)=C1C3(C)C)[C@]1(OC(C)=O)CO[C@@H]1C[C@@H]2OC(=O)/C=C/c1ccc(C(=O)c2ccccc2)cc1` (stereo not given in full), in data set [2], the Activity result is “inhibitor [+]”.

Consider `CCCN(CCC)S(=O)(=O)c1ccc(C(=O)O)cc1` [PROBENECID], for which the Activity result in data set [3] is “is not an inhibitor [-]”.

Regarding `COc1ccc2c3c([nH]c2c1)[C@H](C=C(C)C)N1C(=O)[C@@H]2CCCN2C(=O)[C@@H]1C3` [FUMITREMORGIN], the Activity entry in data set [4] was “is not an inhibitor [-]”.

Consider `CC(=O)O[C@H]1C(=O)[C@@]2(C)[C@H]([C@H](OC(=O)c3ccccc3)[C@]34OC(=O)O[C@H]3[C@H](OC(=O)[C@H](O)[C@H](CC(C)C)NC(=O)OC(C)(C)C)C(C)=C1C4(C)C)[C@]1(OC(C)=O)CO[C@@H]1C[C@@H]2O` [ORTATAXEL], for which the Activity entry in data set [5] was “inhibitor [+]”.

These data come from ChEMBL document CHEMBL2073915, “Broad-spectrum modulation of ATP-binding cassette transport proteins by the taxane derivatives ortataxel (IDN-5109, BAY 59-8862) and tRA96023” (Cancer Chemother Pharmacol, 2004).
